The values below come from article PMC6465675, “Design, Synthesis, Antiviral Evaluation, and SAR Studies of New 1-(Phenylsulfonyl)-1H-Pyrazol−4-yl-Methylaniline Derivatives” (Frontiers in Chemistry, 2019).

A short description of series [1]: in vitro. Particulars: Mesocricetus auratus (hamster).
Series [2] in a line: in vitro. The note with it: Bos taurus (cattle).
Series [3] can be described thus: in vitro. Particulars: Cercopithecus aethiops (monkey), Vero76 CC50.
The nature of series [4]: in vitro. The note with it: human.
The subject of series [5] is YFV.
Series [6] relates to RSV.
Series [7] relates to YFV. The experiment in a line: microbe, parasite or virus in culture. The note with it: Yellow fever virus, BHK, read-out: YFV EC50.
The test system of series [8] is RSV. The series is described as follows: microbe, parasite or virus in culture. The note with it: human respiratory syncytial virus, Vero 76, read-out: RSV EC50.

The melting point is the temperature, or range, at which the solid turns liquid. `COc1ccc(S(=O)(=O)n2cc(CNc3ccccc3)c(-c3ccc(C)cc3)n2)cc1` [8i, N-[(1-((4-Methoxyphenyl)sulfonyl)-3-(p-tolyl)-1H-pyrazol-4-yl)methyl]aniline] came in with a melting point of 154 to 155 °C. The same compound yielded a CC50 in the series “in vitro [1]” greater than 100 µM. In “in vitro [2]”, this compound registered a CC50 greater than 100 µM. Also, the CC50 in the series “in vitro [3]” is greater than 100 µM. The CC50 in “in vitro [4]” is greater than 100 µM.

Regarding `O=S(=O)(c1ccccc1)n1cc(CNc2ccccc2)c(-c2ccccc2)n1` [7a, N-[(3-Phenyl-1-(phenysulfonyl)-1H-pyrazol-4-yl)methyl]aniline], the melting point stood at 139 °C. Further, the CC50 in the series “in vitro [1]” is greater than 100 µM. In addition, the CC50 in “in vitro [2]” is greater than 100 µM. The CC50 in “in vitro [3]” was greater than 100 µM. In “in vitro [4]”, this compound showed a CC50 greater than 100 µM.

Compound `O=C1Nc2ccc(Cl)cc2[C@@](C#CC2CC2)(C(F)(F)F)O1` [EFV, Efavirenz, reference compound] displayed a CC50 in the series “in vitro [4]” of 40 ± 2.5 µM.

For orientation: EC50 means the concentration needed to bring the measured effect to its halfway point. In turn, `Cc1ccc(-c2nn(S(=O)(=O)c3ccccc3)cc2CNc2ccccc2)cc1` [7m, N-[(1-(Phenylsulfonyl)-3-(p-tolyl)-1H-pyrazol-4-yl)methyl]aniline] came in with a melting point of 128 to 129 °C. Besides, the “SI CC50/EC50 (YFV)” value with YFV [5] was greater than 8.7. Moreover, the “SI CC50/EC50 (RSV)” value with RSV [6] was greater than 8.0. Moreover, in the series “in vitro [1]”, the CC50 is greater than 100 µM. Further, the CC50 in the series “in vitro [2]” is greater than 100 µM. Moreover, the CC50 in “in vitro [3]” was greater than 100 µM. This compound also had a CC50 in the series “in vitro [4]” greater than 100 µM. The EC50 in the series on YFV [7] is 11.5 ± 1 µM. In addition, in the series with RSV [8], the EC50 turned out to be 12.5 ± 2.1 µM.

Compound `COc1ccc(S(=O)(=O)n2cc(CNc3ccc(C)cc3)c(-c3ccc(C)cc3)n2)cc1` [8l, 4-Methyl-N-[(1-((4-methoxyphenyl)sulfonyl)-3-(p-tolyl)-1H-pyrazol-4-yl)methyl]aniline] gave a melting point of 145 to 146 °C. The same compound showed a CC50 in “in vitro [1]” greater than 100 µM. The compound also displayed a CC50 in the series “in vitro [2]” greater than 100 µM. Also, the CC50 in “in vitro [3]” was greater than 100 µM. The compound also registered a CC50 in the series “in vitro [4]” greater than 100 µM.

`COc1ccc(S(=O)(=O)n2cc(CNc3ccc(C)cc3)c(-c3ccc(Br)cc3)n2)cc1` [8d, 4-Methyl-N-[(3-(4-bromophenyl)-1-((4-methoxphenyl)sulfonyl)-1H-pyrazol-4-yl)methyl]aniline] returned a melting point of 164 to 166 °C. Moreover, the “SI CC50/EC50 (YFV)” value with YFV [5] is on record as greater than 5.5. Also, the CC50 in “in vitro [1]” was greater than 100 µM. The same compound yielded a CC50 in the series “in vitro [2]” greater than 100 µM. Besides, the CC50 in “in vitro [3]” was 100 µM. The compound further came in with a CC50 in the series “in vitro [4]” greater than 100 µM. In addition, the EC50 in the series with YFV [7] was 18.3 ± 1.1 µM.

Take `O=S(=O)(c1ccccc1)n1cc(CNc2ccccc2)c(-c2ccc(Cl)cc2)n1` [7i, N-[(3-(4-Chlorophenyl)-1-(phenylsulfonyl)-1H-pyrazol-4-yl)methyl]aniline]: the melting point fell in the range of 117 to 118 °C. Also, in the series with YFV [5], the “SI CC50/EC50 (YFV)” value is listed as greater than 13.9. Besides, in the series on RSV [6], the “SI CC50/EC50 (RSV)” value is on record as greater than 8.5. In addition, the CC50 in “in vitro [1]” is greater than 100 µM. In “in vitro [2]”, this compound returned a CC50 greater than 100 µM. The compound further gave a CC50 in the series “in vitro [3]” greater than 100 µM. The compound further gave a CC50 in the series “in vitro [4]” greater than 100 µM. Further, the EC50 in the series with YFV [7] came to 7.2 ± 0.9 µM. The EC50 with RSV [8] is 11.8 ± 2.5 µM.

On to `COc1ccc(S(=O)(=O)n2cc(CNc3ccccc3)c(-c3ccc(Cl)cc3)n2)cc1` [8e], for which the melting point is 143 to 145 °C. In the series “in vitro [1]”, this compound returned a CC50 greater than 100 µM. In the series “in vitro [2]”, this compound returned a CC50 greater than 100 µM. Moreover, the CC50 in the series “in vitro [3]” is greater than 100 µM. Besides, the CC50 in the series “in vitro [4]” is greater than 100 µM.

Regarding `Cc1ccc(NCc2cn(S(=O)(=O)c3ccccc3)nc2-c2ccc(C)cc2)cc1` [7p, 4-Methyl-N-[(1-(phenysulfonyl)-3-(p-tolyl)-1H-pyrazol-4-yl)methyl]aniline], the melting point lay within 123 to 124 °C. In the series on YFV [5], the “SI CC50/EC50 (YFV)” value was greater than 27.8. The “SI CC50/EC50 (RSV)” value with RSV [6] was greater than 8.3. The same compound gave a CC50 in “in vitro [1]” greater than 100 µM. Also, the CC50 in “in vitro [2]” is greater than 100 µM. For the same compound, the CC50 in the series “in vitro [3]” is greater than 100 µM. Also, the CC50 in the series “in vitro [4]” is greater than 100 µM. The EC50 with YFV [7] came out at 3.6 ± 0.5 µM. The EC50 in the series on RSV [8] came out at 12 ± 2 µM.

In the case of `O=S(=O)(c1ccccc1)n1cc(CNc2ccc(Br)cc2)c(-c2ccc(Cl)cc2)n1` [7k, 4-Bromo-N-[(3-(4-chlorophenyl)-1-(phenylsulfonyl)-1H-pyrazol-4-yl)methyl]aniline], the melting point was in the range of 142 to 143 °C. In the series on YFV [5], the “SI CC50/EC50 (YFV)” value was greater than 17.9. Also, the “SI CC50/EC50 (RSV)” value in the series on RSV [6] is greater than 7.2. Moreover, the CC50 in the series “in vitro [1]” was greater than 100 µM. In addition, the CC50 in “in vitro [2]” is greater than 100 µM. The CC50 in the series “in vitro [3]” was greater than 100 µM. Also, the CC50 in the series “in vitro [4]” was greater than 100 µM. Further, the EC50 with YFV [7] worked out at 5.6 ± 0.6 µM. In addition, in the series with RSV [8], the EC50 came to 13.8 ± 0.4 µM.

The compound `Brc1ccc(NCc2cn(-c3ccccc3)nc2-c2ccccc2)cc1` [1c] gave a CC50 in the series “in vitro [1]” greater than 100 µM.

The compound `COc1ccc(S(=O)(=O)n2cc(CNc3ccc(Cl)cc3)c(-c3ccc(C)cc3)n2)cc1` [8j] yielded a melting point of 157 to 158 °C. In the series “in vitro [1]”, this compound came in with a CC50 greater than 100 µM. In “in vitro [2]”, this compound showed a CC50 greater than 100 µM. The compound further returned a CC50 in “in vitro [3]” greater than 100 µM. In “in vitro [4]”, this compound showed a CC50 greater than 100 µM.

As for `Cc1ccc(NCc2cn(S(=O)(=O)c3ccccc3)nc2-c2ccc(Cl)cc2)cc1` [7l, 4-Methyl-N-[(3-(4-chlorophenyl)-1-(phenylsulfonyl)-1H-pyrazol-4-yl)methyl]anyline], the melting point lay within 100 to 101 °C. The “SI CC50/EC50 (YFV)” value in the series with YFV [5] is greater than 15.2. Moreover, the “SI CC50/EC50 (RSV)” value with RSV [6] was greater than 4.2. For the same compound, the CC50 in the series “in vitro [1]” is greater than 100 µM. In “in vitro [2]”, this compound returned a CC50 greater than 100 µM. The compound also returned a CC50 in “in vitro [3]” greater than 100 µM. The compound also displayed a CC50 in the series “in vitro [4]” greater than 100 µM. For the same compound, in the series with YFV [7], the EC50 worked out at 6.6 ± 0.6 µM. In addition, the EC50 in the series with RSV [8] amounted to 24 ± 1 µM.

With `COc1ccc(S(=O)(=O)n2cc(CNc3ccc(C)cc3)c(-c3ccc(Cl)cc3)n2)cc1` [8h, 4-Methyl-N-[(3-(4-chlorophenyl)-1-((4-methoxyphenyl)sulfonyl)-1H-pyrazol-4-yl)methyl]aniline], the melting point was in the range of 169 to 171 °C. Also, the CC50 in “in vitro [1]” was greater than 100 µM. The compound further displayed a CC50 in the series “in vitro [2]” greater than 100 µM. This compound came in with a CC50 in “in vitro [3]” greater than 100 µM. The same compound returned a CC50 in the series “in vitro [4]” greater than 100 µM.

Turning to `Cc1ccc(NCc2cn(S(=O)(=O)c3ccccc3)nc2-c2ccccc2)cc1` [7d, 4-Methyl-N-[(3-phenyl-1-(phenylsulfonyl)-1H-pyrazol-4-yl)methyl]aniline], the melting point turned out to be 199 °C. Further, the CC50 in the series “in vitro [1]” was greater than 100 µM. In “in vitro [2]”, this compound returned a CC50 greater than 100 µM. Further, the CC50 in “in vitro [3]” was no less than 100 µM. In “in vitro [4]”, the CC50 was greater than 100 µM.

Consider `Cc1ccc(-c2nn(S(=O)(=O)c3ccccc3)cc2CNc2ccc(Br)cc2)cc1` [7o, 4-Bromo-N-[(1-(phenylsulfonyl)-3-(p-tolyl)-1H-pyrazol-4-yl)methyl]aniline], for which the melting point amounted to 110 °C. In addition, the “SI CC50/EC50 (YFV)” value with YFV [5] is recorded as greater than 27.0. In the series with RSV [6], the “SI CC50/EC50 (RSV)” value was greater than 7.4. In “in vitro [1]”, this compound gave a CC50 greater than 100 µM. In the series “in vitro [2]”, this compound returned a CC50 greater than 100 µM. This compound also came in with a CC50 in “in vitro [3]” greater than 100 µM. Besides, the CC50 in the series “in vitro [4]” was greater than 100 µM. Moreover, in the series on YFV [7], the EC50 was found to be 3.7 ± 1.3 µM. Further, in the series with RSV [8], the EC50 turned out to be 13.5 ± 0.5 µM.

In turn, `Cc1ccc(-c2nn(S(=O)(=O)c3ccccc3)cc2CNc2ccc(Cl)cc2)cc1` [7n, 4-Chloro-N-[(1-(phenylsulfonyl)-3-(p-tolyl)-1H-pyrazol-4-yl)methyl]aniline] registered a melting point of 115 °C. The “SI CC50/EC50 (YFV)” value in the series on YFV [5] was greater than 19.6. Moreover, the “SI CC50/EC50 (RSV)” value in the series with RSV [6] is given as greater than 7.7. The same compound registered a CC50 in the series “in vitro [1]” greater than 100 µM. This compound also showed a CC50 in the series “in vitro [2]” greater than 100 µM. Moreover, in the series “in vitro [3]”, the CC50 is greater than 100 µM. The CC50 in the series “in vitro [4]” is greater than 100 µM. In addition, the EC50 with YFV [7] amounted to 5.1 ± 0.6 µM. The EC50 in the series with RSV [8] is 13 ± 2.8 µM.
